Legend:
rhIDO1 = rhIDO1 (Homo sapiens, UniProt P14902); experiment: Enzyme-based IDO1 activity assay (kynurenine absorbance at 492 nm); assay type: biochemical; settings: for inhibition at 50 µM: shown when calculated IC50 >50 μM, read-out: IDO inhibition rate (%) at 50 μM; for IC50: rhIDO1 0.05 μM, 37 °C, 45 min, read-out: IDO IC50
Description: (§1) The compounds on IDO1 or TDO activity were determined as follows: A standard reaction mixture (100 μL) containing 100 mM potassium phosphate buffer (pH 6.5), 40 mM ascorbic acid (neutralized with NaOH), 200 μg/mL catalase, 20 μM methylene blue and 0.05 μM rhIDO1 or rhTDO was added to the solution containing the substrate L-tryptophan and the test sample at a determined concentration. […] The yellow pigment derived from kynurenine was measured at 492 nm using a SYNERGY-H1 microplate reader (Biotek Instruments, Inc., Winooski, VT, USA). IC50 was analyzed using the GraphPad Prism 8.0 software (GraphPad Software, San Diego, CA, USA).

rhTDO = rhTDO (Homo sapiens, UniProt P48775); experiment: Enzyme-based TDO activity assay (kynurenine absorbance at 492 nm); assay type: biochemical; settings: for inhibition at 50 µM: shown when calculated IC50 >50 μM, read-out: TDO inhibition rate (%) at 50 μM; for inhibition at 50 µM / TDO IC50 or %: at 50 μM; for TDO IC50 or %: dash symbol
Chain of rhTDO (P48775 whole entry): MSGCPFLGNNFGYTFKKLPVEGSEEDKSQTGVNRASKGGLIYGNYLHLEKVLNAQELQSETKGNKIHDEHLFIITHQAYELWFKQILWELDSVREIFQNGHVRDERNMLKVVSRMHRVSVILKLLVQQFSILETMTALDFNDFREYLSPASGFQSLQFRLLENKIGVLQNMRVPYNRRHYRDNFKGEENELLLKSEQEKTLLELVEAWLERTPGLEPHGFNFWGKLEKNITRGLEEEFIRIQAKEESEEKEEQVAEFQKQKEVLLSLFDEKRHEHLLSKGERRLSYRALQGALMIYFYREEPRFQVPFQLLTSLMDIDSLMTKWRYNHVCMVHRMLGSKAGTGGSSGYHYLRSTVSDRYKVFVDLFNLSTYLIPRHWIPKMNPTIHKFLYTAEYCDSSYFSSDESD
Description: as §1

MCF7 = experiment: Cell viability MTT assay, 72 h; assay type: cell-based; settings: Homo sapiens; for inhibition at 50 µM: shown when calculated IC50 >50 μM, read-out: MCF7 inhibition rate (%) at 50 μM; for IC50: read-out: MCF7 IC50
Description: (§2) B16-F10 mouse melanoma cells, NCI-H460 human lung cancer cell line and MCF7 were obtained from American Type Culture Collection (ATCC). All the cell lines were cultured with Dulbecco’ modified Eagle’s medium (DMEM) (Invitrogen Corporation, Waltham, MA, USA) supplemented with 10% fetal bovine serum (FBS) (Hyclone, Waltham, MA, USA) and 1% penicillin streptomycin (Invitrogen) at 37 °C in 5% CO2.
(§3) The in vitro inhibitory effects of the compounds were measured by MTT assay. Briefly, different kinds of cells were plated in 96-well plates at a density of 2000/well. After attachment for overnight at 37 °C, the cells were treated with the compounds at various concentrations. After 72 h culture, the MTT reagent was added to each well, and plates were incubated for another 4 h at 37 °C. Then, the blue-purple crystal formamidine was dissolved in DMSO after discarding the supernatant. Samples were measured using microplate reader at a wavelength of 570 nm (Biotek Instruments, Inc., Winooski, VT, USA). IC50 values were calculated with GraphPad Prism 8.0 software.

[1] = test system: NCI-H460 human lung cancer cell line; experiment: Cell viability MTT assay, 72 h; assay type: cell-based; settings: for inhibition at 50 µM: shown when calculated IC50 >50 μM, read-out: H460 inhibition rate (%) at 50 μM
Description: as §2, §3

Chain of rhIDO1 (P14902 whole entry): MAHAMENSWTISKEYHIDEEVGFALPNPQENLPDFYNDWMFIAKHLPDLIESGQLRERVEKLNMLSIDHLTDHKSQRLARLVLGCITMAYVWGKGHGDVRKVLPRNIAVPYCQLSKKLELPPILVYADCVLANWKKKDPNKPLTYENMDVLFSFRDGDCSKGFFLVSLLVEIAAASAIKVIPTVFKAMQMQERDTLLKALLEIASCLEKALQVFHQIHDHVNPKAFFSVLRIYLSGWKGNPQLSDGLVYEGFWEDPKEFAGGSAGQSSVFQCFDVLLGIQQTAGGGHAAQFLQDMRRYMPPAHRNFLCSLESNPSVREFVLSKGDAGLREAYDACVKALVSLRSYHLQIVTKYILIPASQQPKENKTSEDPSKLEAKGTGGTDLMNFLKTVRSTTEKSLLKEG

Row | inhibition at 50 µM (rhIDO1; at 50 μM) | inhibition at 50 µM (rhTDO) | Structure (SMILES) | inhibition at 50 µM (MCF7) | inhibition at 50 µM [1] | also measured
1 | 7.2% | 2.3% | O=C1CC(Cc2c[nH]c3ccccc23)C(=O)N1 (racemic) [DX-02-02, (R/S) 3-((1H-indol-3-yl)methyl)pyrrolidine-2,5-dione] |  |  | 
2 | 21.6% | 15.4% | CCOC(=O)c1[nH]c2ccc(F)cc2c1C1CC(=O)NC1=O (racemic) [DX-02-03, (R/S) Ethyl 3-(2,5-dioxopyrrolidin-3-yl)-5-fluoro-1H-indole-2-carboxylate] | 22.1% | 21.7% | 
3 | 40.2% | 14.5% | O=C1CC(c2c(/C=N/O)[nH]c3ccc(F)cc23)C(=O)N1 (racemic) [DX-02-04, (R/S) (E)-3-(2,5-dioxopyrrolidin-3-yl)-5-fluoro-1H-indole-2-carbaldehyde oxime] |  |  | 
4 | 12.5% | 16.3% | O=C1CC(c2c(CNO)[nH]c3ccc(F)cc23)C(=O)N1 (racemic) [DX-02-05, (R/S) 3-(5-fluoro-2-((hydroxyamino)methyl)-1H-indol-3-yl)pyrrolidine-2,5-dione] |  |  | 
5 | 22.6% | 19.6% | CSc1[nH]c2ccc(F)cc2c1C1CC(=O)NC1=O (racemic) [DX-02-06, (R/S) 3-(5-fluoro-2-(methylthio)-1H-indol-3-yl)pyrrolidine-2,5-dione] | 19.9% | 30.1% | 
6 | 20.1% | 13.9% | C[S+]([O-])c1[nH]c2ccc(F)cc2c1C1CC(=O)NC1=O (racemic) [DX-02-07, (R/S) 3-(5-fluoro-2-(methylsulfinyl)-1H-indol-3-yl)pyrrolidine-2,5-dione] | 11% | 15.2% | 
7 | 9.7% | 8.9% | O=C(O)c1cc2ccccc2[nH]1 [DX-01-01] |  |  | 
8 | 2.4% | 10% | Cc1cccc2[nH]cc(C(=O)O)c12 [DX-01-02, 4-methyl-1H-indole-3-carboxylic Acid] |  | 39.2% | IC50 (MCF7): 43.1 µM
9 | 10.3% | 10.1% | Cc1ccc2[nH]cc(C(=O)O)c2c1 [DX-01-03, 5-methyl-1H-indole-3-carboxylic Acid] | 37.6% | 26.3% | 
10 | 3.3% | 6% | O=C(O)c1c[nH]c2ccc([N+](=O)[O-])cc12 [DX-01-04, 5-nitro-1H-indole-3-carboxylic Acid] | 24.3% | 15.1% | 
11 | 10.2% | 10.5% | O=C(O)c1c[nH]c2cc([N+](=O)[O-])ccc12 [DX-01-05, 6-nitro-1H-indole-3-carboxylic Acid] | 29.7% | 5.9% | 
12 | 6.2% | 8.4% | COc1ccc2[nH]cc(C(=O)O)c2c1 [DX-01-06, 5-methoxy-1H-indole-3-carboxylic Acid] | 25.7% | 11.2% | 
13 | 7.4% | 16.9% | O=C(O)c1c[nH]c2c(Br)cccc12 [DX-01-07, 7-bromo-1H-indole-3-carboxylic Acid] | 34.6% | 22.2% | 
14 | 10.9% | 3.2% | O=[N+]([O-])c1c[nH]c2ccccc12 [DX-01-08] |  |  | 
15 |  | 3.8% | COc1ccc2[nH]cc(CCNC(C)=O)c2c1 [DX-01-11] |  |  | IDO IC50 or % (rhIDO1; at 50 μM, dash symbol): -
16 | 47.1% | 33.9% | O=C(NO)c1c[nH]c2ccccc12 [DX-01-12] |  |  | 
17 |  | 35.4% | Cc1ccccc1-c1ccc2[nH]cc(CNO)c2c1 [DX-01-15, N-((5-(o-tolyl)-1H-indol-3-yl)methyl)hydroxylamine] |  |  | IDO1 inhibition, in words (rhIDO1): moderate; IC50 (rhIDO1): 21.3 µM

Row | inhibition at 50 µM (rhIDO1; at 50 μM) | inhibition at 50 µM (rhTDO) | Structure (SMILES) | inhibition at 50 µM (MCF7) | inhibition at 50 µM [1] | also measured
18 |  | 19.7% | O/N=C/c1cc2ccccc2[nH]1 [DX-01-16, (E)-1H-indole-2-carbaldehyde Oxime] | 20.9% | 44.5% | IDO1 inhibition, in words (rhIDO1): moderate; IC50 (rhIDO1): 23.2 µM
19 |  | 42.2% | ONCc1cc2ccccc2[nH]1 [DX-01-17, N-((1H-indol-2-yl)methyl)hydroxylamine] |  |  | IDO1 inhibition, in words (rhIDO1): moderate; IC50 (rhIDO1): 17.7 µM
20 | 15.7% | 3.8% | N#CCc1nc2ccccc2o1 [DX-01-20] |  |  | 
21 | 13.2% | 4.5% | N#CCc1nc2ccccc2[nH]1 [DX-01-22] |  |  | 
22 | 6.3% |  | O=C1C/C(=C\c2c[nH]c3ccccc23)C(=O)N1 [DX-02-01, (E)-3-((1H-indol-3-yl)methylene)pyrrolidine-2,5-dione] |  |  | TDO IC50 or % (rhTDO; Table 2): -
23 | 24.2% | 13.9% | O/N=C/c1ccccc1-c1c[nH]cn1 [DX-03-02, (E) 2-(1H-imidazol-4-yl)benzaldehyde Oxime] |  |  | 
24 | 19.4% | 11.1% | ONCc1ccccc1-c1c[nH]cn1 [DX-03-03, N-(2-(1H-imidazol-4-yl)benzyl)hydroxylamine] | 22.2% | 5% | 
25 | 11.9% | 20.3% | O/N=C/c1ccccc1-c1nn[nH]n1 [DX-03-04, (E) 2-(2H-tetrazol-5-yl)benzaldehyde Oxime] | 34.7% | 12.7% | 
26 | 31.3% | 12.1% | O/N=C/c1cc(Cl)ccc1-c1c[nH]cn1 [DX-03-05, (E) 5-chloro-2-(1H-imidazol-4-yl)benzaldehyde Oxime] |  |  | 
27 | 25.6% | 12.9% | O/N=C/c1c(F)cccc1-c1c[nH]cn1 [DX-03-06, (E) 2-fluoro-6-(1H-imidazol-4-yl)benzaldehyde Oxime] |  |  | 
28 | 33.5% | 15.1% | COc1ccc(-c2c[nH]cn2)c(/C=N/O)c1 [DX-03-07, (E) 2-(1H-imidazol-4-yl)-5-methoxybenzaldehyde Oxime] |  |  | 
29 | 15.6% | 11.1% | O/N=C/c1cc(-c2ccccc2C(F)(F)F)ccc1-c1c[nH]cn1 [DX-03-08, (E) 4-(1H-imidazol-4-yl)-2′-(trifluoromethyl)-[1,1′-biphenyl]-3-carbaldehyde Oxime] |  |  | 
30 | 5.3% | 6.4% | O/N=C/c1ccc(-c2ccccc2)cc1-c1c[nH]cn1 [DX-03-09, (E) 3-(1H-imidazol-4-yl)-[1,1′-biphenyl]-4-carbaldehyde Oxime] | 37.7% | 40.5% | 
31 | 13.2% | 21.5% | FC(F)(F)c1ccc(COc2ccccc2-c2csnn2)cc1 [DX-03-10, 4-(2-((4-(trifluoromethyl)benzyl)oxy)phenyl)-1,2,3-thiadiazole] | 24.7% | 7.6% | 
32 |  | 38.2% | NS(=O)(=O)NCCCOc1ccccc1-c1c[nH]cn1 [DX-03-11, N-(3-(2-(1H-imidazol-5-yl)phenoxy)propyl)-aminesulfonamide] |  |  | IC50 (rhIDO1): 2.4 µM; TDO inhibition, in words (rhTDO): marginal
33 |  |  | CC(=O)O[C@H]1C(=O)[C@@]2(C)[C@H]([C@H](OC(=O)c3ccccc3)[C@]3(O)C[C@H](OC(=O)[C@H](O)[C@@H](NC(=O)c4ccccc4)c4ccccc4)C(C)=C1C3(C)C)[C@]1(OC(C)=O)CO[C@@H]1C[C@@H]2O [Taxol, reference compound] |  |  | IC50 (MCF7): 0.015 µM; IC50 ([1]; read-out: H460 IC50): 0.006 µM

Row | Structure (SMILES) | inhibition at 50 µM (rhIDO1; at 50 μM) | inhibition at 50 µM (rhTDO) | inhibition at 50 µM (MCF7) | inhibition at 50 µM [1] | also measured
34 | N#Cc1c[nH]c2ccccc12 [DX-01-09] | 2.6% | 7.8% |  |  | 
35 | N#CCc1c[nH]c2ccccc12 [DX-01-10] | 2.1% | 8.9% |  |  | 
36 | O/N=C/c1c[nH]c2ccccc12 [DX-01-13, (E) 1H-indole-3-carbaldehyde Oxime] | 19.7% | 8.1% | 10.1% | 23.1% | 
37 | ONCc1c[nH]c2ccccc12 [DX-01-14, N-((1H-indol-3-yl)methyl)hydroxylamine] |  | 38.2% |  |  | IDO1 inhibition, in words (rhIDO1): moderate; IC50 (rhIDO1): 11.1 µM
38 | O=c1[nH]c2ccccc2o1 [DX-01-18] | 5.4% |  |  |  | TDO IC50 or % (rhTDO; Table 1): -
